US12441691B2 (Cytokinetics, Inc., priority 2020, dated 2025)

tested on: rabbit skeletal myofibrils (fast skeletal myofibrils); assay: Activation of fast skeletal myofibrils (PUMA assay, AC1.4); assay type: biochemical; settings: calcium at pCa25, AC1.4 = concentration at which the compound increased the enzymatic activity
In short: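 In 12 mM PIPES pH 6.8 with 2 mM MgCl2 and 1 mM DTT, Triton-washed rabbit skeletal myofibrils were run at the pCa25 calcium level. Myosin-made ADP was recycled through a PK/LDH coupled system; NADH loss read at 340 nm.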

Row | SMILES | AC1.4
1 | CC[C@H](C)[C@H]1C(=O)Nc2ccccc2CN1C(=O)Nc1ccc(=O)n(CC(F)F)n1 [Compound 274, (S)-3-((S)-sec-butyl)-N-(1-(2,2-difluoroethyl)-6-oxo-1,6-dihydropyridazin-3-yl)-2-oxo-1,2,3,5-tetrahydro-4H-benzo[e][1,4]diazepine-4-carboxamide] | 0.06 µM
2 | CC[C@H](C)[C@H]1C(=O)Nc2ccccc2CN1C(=O)Nc1ccc(=O)n(CC(F)(F)F)n1 [Compound 275, (S)-3-((S)-sec-butyl)-2-oxo-N-(6-oxo-1-(2,2,2-trifluoroethyl)-1,6-dihydropyridazin-3-yl)-1,2,3,5-tetrahydro-4H-benzo[e][1,4]diazepine-4-carboxamide] | 0.06 µM
3 | CC[C@H](C)[C@H]1C(=O)Nc2ccccc2CN1C(=O)NCc1ccccc1 [Compound 276, (S)-N-benzyl-3-((S)-sec-butyl)-2-oxo-1,2,3,5-tetrahydro-4H-benzo[e][1,4]diazepine-4-carboxamide] | 0.24 µM
4 | CC[C@H](C)[C@H]1C(=O)Nc2ccccc2CN1C(=O)Nc1cccc(F)c1 [Compound 277, (S)-3-((S)-sec-butyl)-N-(3-fluorophenyl)-2-oxo-1,2,3,5-tetrahydro-4H-benzo[e][1,4]diazepine-4-carboxamide] | 0.08 µM
5 | CC[C@H](C)[C@H]1C(=O)Nc2ccccc2CN1C(=O)Nc1cnc2[nH]ncc2c1 [Compound 278, (S)-3-((S)-sec-butyl)-2-oxo-N-(1H-pyrazolo[3,4-b]pyridin-5-yl)-1,2,3,5-tetrahydro-4H-benzo[e][1,4]diazepine-4-carboxamide] | 0.05 µM
6 | CC[C@H](C)[C@H]1C(=O)Nc2ccccc2CN1C(=O)N1CC[C@H](C(=O)OC)C1 [Compound 279, methyl (S)-1-((S)-3-((S)-sec-butyl)-2-oxo-2,3,4,5-tetrahydro-1H-benzo[e][1,4]diazepine-4-carbonyl)pyrrolidine-3-carboxylate] | 1.46 µM
7 | CC[C@H](C)[C@H]1C(=O)Nc2ccccc2CN1C(=O)N1CC[C@@H](O)C1 [Compound 280, (S)-3-((S)-sec-butyl)-4-((R)-3-hydroxypyrrolidine-1-carbonyl)-1,3,4,5-tetrahydro-2H-benzo[e][1,4]diazepin-2-one] | 1.06 µM
8 | CC[C@H](C)[C@H]1C(=O)Nc2ccccc2CN1C(=O)N1CCN(CCc2ccccc2)CC1 [Compound 281, (S)-3-((S)-sec-butyl)-4-(4-phenethylpiperazine-1-carbonyl)-1,3,4,5-tetrahydro-2H-benzo[e][1,4]diazepin-2-one] | 0.30 µM
9 | CC[C@H](C)[C@H]1C(=O)Nc2ccccc2CN1C(=O)N1CC[C@H](O)C1 [Compound 282, (S)-3-((S)-sec-butyl)-4-((S)-3-hydroxypyrrolidine-1-carbonyl)-1,3,4,5-tetrahydro-2H-benzo[e][1,4]diazepin-2-one] | 0.38 µM
10 | CC[C@H](C)[C@H]1C(=O)Nc2ccccc2CN1C(=O)Nc1nnc(C)s1 [Compound 283, (S)-3-((S)-sec-butyl)-N-(5-methyl-1,3,4-thiadiazol-2-yl)-2-oxo-1,2,3,5-tetrahydro-4H-benzo[e][1,4]diazepine-4-carboxamide] | 0.09 µM
11 | CC[C@H](C)[C@H]1C(=O)Nc2ccccc2CN1C(=O)Nc1cccnc1CO [Compound 284, (S)-3-((S)-sec-butyl)-N-(2-(hydroxymethyl)pyridin-3-yl)-2-oxo-1,2,3,5-tetrahydro-4H-benzo[e][1,4]diazepine-4-carboxamide] | 0.11 µM
12 | CC[C@H](C)[C@H]1C(=O)Nc2ccccc2CN1C(=O)N1CC[C@@H](CO)C1 [Compound 285, (S)-3-((S)-sec-butyl)-4-((R)-3-(hydroxymethyl)pyrrolidine-1-carbonyl)-1,3,4,5-tetrahydro-2H-benzo[e][1,4]diazepin-2-one] | 0.54 µM
13 | CC[C@H](C)[C@H]1C(=O)Nc2ccccc2CN1C(=O)NCc1ccccc1C(N)=O [Compound 286] | 0.30 µM
14 | CC[C@H](C)[C@H]1C(=O)Nc2ccccc2CN1C(=O)N[C@H](C(N)=O)c1ccccc1 [Compound 287, (S)-N-((S)-2-amino-2-oxo-1-phenylethyl)-3-((S)-sec-butyl)-2-oxo-1,2,3,5-tetrahydro-4H-benzo[e][1,4]diazepine-4-carboxamide] | 0.35 µM
15 | CC[C@H](C)[C@H]1C(=O)Nc2ccccc2CN1C(=O)c1ccc(C(N)=O)cc1 [Compound 288, 4-((S)-3-((S)-sec-butyl)-2-oxo-2,3,4,5-tetrahydro-1H-benzo[e][1,4]diazepine-4-carbonyl)benzamide] | 0.16 µM
16 | CC[C@H](C)[C@H]1C(=O)Nc2ccccc2CN1C(=O)N1CC[C@H](C(=O)O)C1 [Compound 289, (S)-1-((S)-3-((S)-sec-butyl)-2-oxo-2,3,4,5-tetrahydro-1H-benzo[e][1,4]diazepine-4-carbonyl)pyrrolidine-3-carboxylic acid] | 3.59 µM
17 | CC[C@H](C)[C@H]1C(=O)Nc2ccccc2CN1C(=O)NC1CCN(C)CC1 [Compound 290, (S)-3-((S)-sec-butyl)-N-(1-methylpiperidin-4-yl)-2-oxo-1,2,3,5-tetrahydro-4H-benzo[e][1,4]diazepine-4-carboxamide] | 0.15 µM
18 | CC[C@H](C)[C@H]1C(=O)Nc2ccccc2CN1C(=O)Nc1ccn(C)c(=O)c1 [Compound 291, (S)-3-((S)-sec-butyl)-N-(1-methyl-2-oxo-1,2-dihydropyridin-4-yl)-2-oxo-1,2,3,5-tetrahydro-4H-benzo[e][1,4]diazepine-4-carboxamide] | 0.05 µM
19 | CC[C@H](C)[C@H]1C(=O)Nc2ccccc2CN1C(=O)Nc1cncc(OC)c1 [Compound 292, (S)-3-((S)-sec-butyl)-N-(5-methoxypyridin-3-yl)-2-oxo-1,2,3,5-tetrahydro-4H-benzo[e][1,4]diazepine-4-carboxamide] | 0.05 µM
20 | CC[C@H](C)[C@H]1C(=O)Nc2ccccc2CN1C(=O)NC1CCOCC1 [Compound 293, (S)-3-((S)-sec-butyl)-2-oxo-N-(tetrahydro-2H-pyran-4-yl)-1,2,3,5-tetrahydro-4H-benzo[e][1,4]diazepine-4-carboxamide] | 0.55 µM
21 | CC[C@H](C)[C@H]1C(=O)Nc2ccccc2CN1C(=O)N1CC[C@H](C(=O)NC)C1 [Compound 294, (S)-1-((S)-3-((S)-sec-butyl)-2-oxo-2,3,4,5-tetrahydro-1H-benzo[e][1,4]diazepine-4-carbonyl)-N-methylpyrrolidine-3-carboxamide] | 2.32 µM
22 | CC[C@H](C)[C@H]1C(=O)Nc2ccccc2CN1C(=O)N1CC[C@H](C(=O)N(C)C)C1 [Compound 295] | 3.41 µM
23 | CC[C@H](C)[C@H]1C(=O)Nc2ccccc2CN1C(=O)N1CC[C@H](C(N)=O)C1 [Compound 296, (S)-1-((S)-3-((S)-sec-butyl)-2-oxo-2,3,4,5-tetrahydro-1H-benzo[e][1,4]diazepine-4-carbonyl)pyrrolidine-3-carboxamide] | 1.75 µM
24 | CC[C@H](C)[C@H]1C(=O)Nc2ccccc2CN1C(=O)N(C)C(C)C [Compound 297, (S)-3-((S)-sec-butyl)-N-isopropyl-N-methyl-2-oxo-1,2,3,5-tetrahydro-4H-benzo[e][1,4]diazepine-4-carboxamide] | 1.13 µM
